Assay results published in ChEMBL document CHEMBL1151595, “Palladium-catalyzed synthesis of C3-substituted 3-deoxymorphines” (Bioorg Med Chem Lett, 1994).

Columns and labels:
Type in all cases: tissue-based
[1] = target: Mu-type opioid receptor (Cavia porcellus) (UniProt P97266); experiment: Binding to mu opioid receptor by using [3H]DAMGO as radioligand in guinea pig brain minus cerebellum at 10 uM
[2] = target: Kappa-type opioid receptor (Cavia porcellus, UniProt P41144); experiment: Binding to kappa opioid receptor by using [3H]U-69593 as radioligand in guinea pig cerebellum
Mu-type opioid receptor = Mu-type opioid receptor (Cavia porcellus, UniProt P97266); experiment: Binding to mu opioid receptor by using [3H]DAMGO as radioligand in guinea pig brain minus cerebellum
Mu-type opioid receptor, sequence (P97266 whole entry): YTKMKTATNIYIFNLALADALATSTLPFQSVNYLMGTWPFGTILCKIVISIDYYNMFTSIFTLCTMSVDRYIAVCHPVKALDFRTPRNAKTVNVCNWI

Kappa-type opioid receptor, sequence (P41144 whole entry): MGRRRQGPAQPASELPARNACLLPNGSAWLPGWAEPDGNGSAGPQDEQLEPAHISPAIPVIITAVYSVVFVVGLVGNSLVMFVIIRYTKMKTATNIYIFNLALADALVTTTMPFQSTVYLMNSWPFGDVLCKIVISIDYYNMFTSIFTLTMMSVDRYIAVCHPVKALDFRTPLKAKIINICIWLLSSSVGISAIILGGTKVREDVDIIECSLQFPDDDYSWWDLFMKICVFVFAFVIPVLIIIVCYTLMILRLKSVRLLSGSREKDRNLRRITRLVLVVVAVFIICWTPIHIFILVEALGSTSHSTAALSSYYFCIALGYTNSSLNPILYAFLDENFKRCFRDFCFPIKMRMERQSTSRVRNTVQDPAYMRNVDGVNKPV
Mu-type opioid receptor (Cavia porcellus), sequence (P97266 whole entry): as the sequence (P97266 whole entry) above

SMILES | inhibition [1] [%] | IC50 [2] [µM] | IC50 (Mu-type opioid receptor) [µM]
CN1CC[C@]23c4c5ccc(-c6cc7ccccc7s6)c4O[C@H]2[C@@H](O)C=C[C@H]3[C@H]1C5 | 41 | 126 | –
CN1CC[C@]23c4c5cccc4O[C@H]2[C@@H](O)C=C[C@H]3[C@H]1C5 | – | 11 | 0.53
CN1CC[C@]23c4c5ccc(-c6cccs6)c4O[C@H]2[C@@H](O)C=C[C@H]3[C@H]1C5 | 49 | 25 | –
CN1CC[C@]23c4c5ccc(-c6ccco6)c4O[C@H]2[C@@H](O)C=C[C@H]3[C@H]1C5 | – | 9.5 | 2.6
CN1CC[C@]23c4c5ccc(-c6ccoc6)c4O[C@H]2[C@@H](O)C=C[C@H]3[C@H]1C5 | – | 0.91 | 0.2
Cc1ccc2c3c1O[C@H]1[C@@H](O)C=C[C@H]4[C@@H](C2)N(C)CC[C@@]341 | – | 36 | 4.5
CC(=O)c1ccc2c3c1O[C@H]1[C@@H](O)C=C[C@H]4[C@@H](C2)N(C)CC[C@@]341 | – | 5.1 | 0.64
CN1CC[C@]23c4c5ccc(-c6ccccc6)c4O[C@H]2[C@@H](O)C=C[C@H]3[C@H]1C5 | 43 | 76 | –
CN1CC[C@]23c4c5ccc(OS(=O)(=O)C(F)(F)F)c4O[C@H]2[C@@H](O)C=C[C@H]3[C@H]1C5 | – | 111 | 6.4
CN1CC[C@]23c4c5ccc(-c6ccsc6)c4O[C@H]2[C@@H](O)C=C[C@H]3[C@H]1C5 | – | 15 | 3.3
